Test results reported in patent US20220000817A1, “PROGNOSIS AND TREATMENT OF METASTATIC CANCER” (Academia Sinica, priority 2018, published 2022).
Where a SMILES comes first, the peptide text is derived from it. The star is where a group is joined. Cbz = O=C(OCc1ccccc1)*

Tests used:
EFHD2 [1] = experiment: Ibuprofen-induced EFHD2 degradation with proteasome/lysosome inhibitors, western blot; type: cell-based, human; details: for effect on ibuprofen-induced EFHD2 degradation: H1299 cells pretreated 0.5 hr, then 600 μM ibuprofen
Protocol: FIG. 6. Ibuprofen activates both proteasomal and lysosomal degradation of EFHD2. H1299 cells were pretreated with MG132 and/or Baf-A1 for 0.5 hr, then followed by the treatment of 600 μM ibuprofen for the indicated time. EFHD2 expression was determined by western blot assay.
Western blot analysis. Proteins were separated using 10% or 12.5% SDS-PAGE and transferred onto a PVDF membrane via electroblotting at 400V at 4° C. for 3 hr in 25 mmol/L Tris-HCl, 197 mmol/L glycine, and 13.3% (v/v) methanol. Then, 5% (w/v) skim milk in TBST was used for the blocking reaction, and the primary antibodies were incubated at room temperature overnight. After TBST washes, horseradish peroxidase-conjugated secondary antibodies were further incubated at room temperature for 1 hr. […] The primary antibodies used in this study included EFHD2 (ab106667; abcam), E-cadherin (#5296; Cell Signaling), vimentin (#3932; Cell Signaling), CAV1 (#3238; Cell Signaling), and β-actin (ab8226; abeam).
As ubiquitin-proteasome pathway and autophagy-lysosome pathway are two major systems responsible for cellular protein degradation, we then investigated whether any of the two systems has involved in ibuprofen-mediated EFHD2 degradation.

EFHD2 [2] = experiment: Western blot of EFHD2 expression in cancer cells; type: cell-based, human; details: H1299 and F4 cells
Protocol: Cell lines and cell culture. Human lung adenocarcinoma cells A549 and H1299 were obtained from the American Type Culture Collection (ATCC, Maryland, USA). Human lung adenocarcinoma cell lines CL1-0 were from National Taiwan University Hospital, Taipei, Taiwan. Cell line CL1-5-F4 (F4) was established by selection of increasingly invasive cell populations from CL1-0 in according to procedures described by Chu Y W et al (Am J Respir Cell Mol Biol (1997) 17:353-360). H1299 and F4 cells were cultured in DMEM/F-12 media (Invitrogen). A549 and CL1-0 cells were maintained in RPMI 1640 media (Invitrogen). All culture media were supplemented with 10% fetal bovine serum and 1% antibiotics (GIBCO). All cells were grown in a humidified atmosphere of 5% CO2 and 95% air at 37° C. Western blot analysis. Proteins were separated using 10% or 12.5% SDS-PAGE and transferred onto a PVDF membrane via electroblotting at […] at 4° C. for 3 hr in 25 mmol/L Tris-HCl, 197 mmol/L glycine, and 13.3% (v/v) methanol. Then, 5% (w/v) skim milk in TBST was used for the blocking reaction, and the primary antibodies were incubated at room temperature overnight. After TBST washes, horseradish peroxidase-conjugated secondary antibodies were further incubated at room temperature for 1 hr. […] The primary antibodies used in this study included EFHD2 (ab106667; abcam), E-cadherin (#5296; Cell Signaling), vimentin (#3932; Cell Signaling), CAV1 (#3238; Cell Signaling), and β-actin (ab8226; abeam). […] Results are illustrated in FIG. 4.

H1299 cells [3] = experiment: MTT cell survival, H1299 shGFP / shEFHD2 cells; type: cell-based, human
Protocol: MTT assay was used to determine cell survival ratio in the control cells (H1299^shGFP) or cells having the expression of EFHD2 being knock-out via interference RNA (H1299^shEFHD2) with or without the treatment of ibuprofen and/or cisplatin.
(§1) MTT assay. […] The absorbance of the solution at 570 nm was measured by spectrophotometer.
In this example, the mechanism of ibuprofen and its combination with a chemotherapeutic drug (i.e., cisplatin) were investigated via comparing their actions on the survival of H1299 cells in the presence or absence of EFHD2. To this purpose, H1299 cells were pre-treated with the present shRNA (i.e., H1299^shEFHD2) to knockdown the expression of EFHD2 in H1299 cells in accordance with procedures described in Example 1; and the control cells were pre-treated with shGFP. Results are depicted in FIG. 7.

H1299 cells [4] = experiment: H1299 xenograft mouse model, tumor size; type: in vivo, BALB/c nude mice; details: cisplatin 5 mg/Kg injection once per week for 3 weeks; ibuprofen 25 mg/Kg orally; alone or in combination
Excerpt: Animals. All procedures (2017-305) involving animal research were approved by the Institutional Animal Care and Use Committee (IACUC) at Chinese Medical University Hospital (CMUH) (Taichung, Taiwan). 5-week-old male BALB/c nude mice (18 to 25 g) were obtained from the National Laboratory Animal Center (Taipei, Taiwan). Mice were maintained in an environment under a 12: 12 hr light/dark cycle with access to food and water ad libitum.
BALB/c nude mice were orthotropically xenografted with H1299 cells (1×10^6 cells) by stereotactic injection in the back. Mouse tumor progression (including growth and metastasis) was measured by IVIS weekly until week 7.
In this example, in vivo effect of the combined treatment of ibuprofen and cisplatin was investigated via the xenograft mouse model established in accordance with the procedures described in the “Materials and methods” section. For treatment purpose, mice were treated with cisplatin (5 mg/Kg, via injection, once per week for 3 weeks) and ibuprofen (25 mg/Kg, orally fed, on the day when cisplatin was injected, and 1 day prior to, and 1 day after the cisplatin injection), alone or in combination. Mice were then sacrificed and the tumors were isolated and further analyzed. Results are depicted in FIG. 9.

F4 cells = experiment: Sensitization of F4 cells to cisplatin by 2-APAs; type: cell-based, human; details: F4 cells pre-treated with 20 μM 2-APA, data not shown
Excerpt: In this example, the effect of 2-APAs (e.g., ibuprofen, flurbiprofen, naproxen and ketoprofen) and cisplatin on F4 cells were investigated.

H1299 and F4 cells = experiment: Migration and invasion by matrigel transwell system; type: cell-based, human
Protocol: FIG. 5 Ibuprofen reduced EFHD2 expression in cancer cells. (A) The effect of various doses of ibuprofen on EFHD2 in H1299 and F4 cells were respectively determined by Western blot assay; (B) The effects of ibuprofen on the invasion and migration ability of H1299 and F4 cells were analyzed by matrigel transwell system. Wound healing assay. The in vitro migration assay was performed using a Culture-Insert well (ibidi GmbH, German/v). Cancer cells (4.5×10^4 cells) were cultured in suitable media in the device for 24 hr. After removal of the Culture-Insert, cancer cells were cultured for an additional 8 hr. The migration distance of cancer cells was recorded, and the migration area was measured using ImageJ software. Matrigel invasion assay. For in vitro invasion assay, cancer cells (1.5×10^5 cells in 200 μL) were suspended in the upper half of a PET membrane transwell insert chamber (BD Biosciences), which was coated with Matrigel (1 mg/mL; BD Biosciences), on a 24-well plate. Medium supplemented with 10% FBS was added as a chemoattractant to the lower half After incubation at 37° C. for 24 hr, cancer cells that passed through the insert were fixed with 3.7% formalin (Sigma-Aldrich) and stained with 0.1% crystal violet (Sigma-Aldrich).

EFHD2 mRNA = experiment: qPCR of EFHD2 mRNA levels with or without ibuprofen; type: cell-based, human; details: data not shown
A549 cells = experiment: MTT cell survival, A549 pcDNA / pEFHD2 cells; type: cell-based, human
Protocol: FIG. 8 Susceptibility of cancer cells lacking endogenous EFHD2 to chemotherapeutic drug is not enhanced by ibuprofen. MTT assay was used to determine cell survival ratio in the control cells (A549^pcDNA) or cells transfecting with vectors that carrying exogenous EFHD2 gene (A549^pEFHD2) with or without the treatment of ibuprofen and/or cisplatin.
as §1
In this example, instead of knocking down the endogenous EFHD2 expression via interference RNA, human lung adenocarcinoma cells A549 having low level of endogenous EFHD2 were used to further elucidate the action of ibuprofen (i.e., enhancing the susceptibility of cancer cells to chemotherapeutic drugs). Results are illustrated in FIG. 8.

SMILES	expression of EFHD2 (EFHD2 [2])	sensitivity to subsequent cisplatin treatment (cell death) (F4 cells)	also measured
CO/C1=C\C(C)=C\[C@@H](C)[C@@H](O)[C@@H](C)C/C(C)=C/C=C/[C@H](OC)[C@@H]([C@@H](C)[C@@H](O)[C@H](C)[C@@]2(O)C[C@@H](O)[C@H](C)[C@@H](C(C)C)O2)OC1=O [Baf-A1, bafilomycin A1]	–	–	effect on ibuprofen-induced EFHD2 degradation (EFHD2 [1]): incapable of reducing ibuprofen-induced EFHD2 degradation
CC(C)C[C@@H](C=O)NC(=O)[C@H](CC(C)C)NC(=O)[C@H](CC(C)C)NC(=O)OCc1ccccc1 [MG132] (Cbz-Leu-Leu-Leu-aldehyde)	–	–	effect on ibuprofen-induced EFHD2 degradation (EFHD2 [1]): incapable of reducing ibuprofen-induced EFHD2 degradation
CC(=O)Oc1ccccc1C(=O)O [aspirin]	possessed no such effect	–	–
N.N.[Cl][Pt][Cl] [cisplatin]	–	–	survival ratio (H1299 cells [3]; H1299^shGFP and H1299^shEFHD2 cells, cisplatin alone, MTT 24 hours): decreased with an increase in the concentration of cisplatin; size of the tumor (H1299 cells [4]): significantly reduce the size of the tumor
O=C(O)Cc1ccccc1Nc1c(Cl)cccc1Cl [diclofenac]	possessed no such effect	–	–
CC(C(=O)O)c1ccc(-c2ccccc2)c(F)c1 (stereo not shown) [flurbiprofen]	effective in suppressing the expression of EFHD2	more sensitive to the subsequent treatment of cisplatin	–
CC(C)Cc1ccc(C(C)C(=O)O)cc1 (stereo not shown) [ibuprofen]	effective in suppressing the expression of EFHD2	more sensitive to the subsequent treatment of cisplatin	level of EFHD2 (EFHD2 [2]; various doses of ibuprofen): reduce the level of EFHD2 in a dose-dependent manner; invasion ability (H1299 and F4 cells): attenuated; migration ability (H1299 and F4 cells): attenuated; EFHD2 mRNA levels (EFHD2 mRNA): did not influence EFHD2 mRNA levels; mechanism of EFHD2 degradation (EFHD2 [1]; H1299 cells, 600 μM ibuprofen): both proteasomal- and lysosomal-dependent mechanism; survival ratio, combination with cisplatin (H1299 cells [3]; H1299^shEFHD2 cells vs H1299^shGFP+ibuprofen): comparable to the control cells subjecting to the same treatment; survival ratio, combination with cisplatin (H1299 cells [3]; H1299^shGFP cells, ibuprofen (600 and cisplatin (1, 2, 5, 10 or 20 μM))): lower than those treated with cisplatin alone; susceptibility to cisplatin treatment (A549 cells; A549^pEFHD2 vs A549^pEFHD2+ibuprofen): failed to increase their susceptibilities to cisplatin; susceptibility to cisplatin treatment (A549 cells; A549^pcDNA vs A549^pcDNA+ibuprofen): no enhanced susceptibility; size of the tumor (H1299 cells [4]): more effective than cisplatin
CC(C(=O)O)c1cccc(C(=O)c2ccccc2)c1 (stereo not shown) [ketoprofen]	effective in suppressing the expression of EFHD2	more sensitive to the subsequent treatment of cisplatin	–
O=C(c1ccccc1)c1ccc2n1CCC2C(=O)O (stereo not shown) [ketorolac]	possessed no such effect	–	–
Cc1cccc(Nc2ccccc2C(=O)O)c1C [mefenamic acid]	possessed no such effect	–	–
COc1ccc2cc([C@H](C)C(=O)O)ccc2c1 [naproxen]	effective in suppressing the expression of EFHD2	more sensitive to the subsequent treatment of cisplatin	–
CN1C(C(=O)Nc2ccccn2)=C(O)c2ccccc2S1(=O)=O [piroxicam]	possessed no such effect	–	–
CC1=C(CC(=O)O)c2cc(F)ccc2/C1=C\c1ccc([S+](C)[O-])cc1 (stereo not shown) [sulindac]	possessed no such effect	–	–
